# Measured values taken from patent US20090291088A1, “THERAPEUTIC COMBINATIONS OF ANTI-IGF-1R ANTIBODIES AND OTHER COMPOUNDS” (Biogen Idec MA Inc., priority 2008, published 2009).
# Columns and labels:
# IGF-1R = assay: Biacore analysis of the IGF-1R-Fc mutant library: M13-C06 Fab binding to receptor-Fc captured on M13-C06 chip; design: species or system human; settings: M13-C06 Fab binding to mutant hIGF-1R-Fc captured on M13-C06 chip
# Excerpt: Both mIGF-1R-Fc and hIGF-1R-Fc bind with high apparent affinity to the M13-C06, M14-C03, and M14-G11 sensorchip surfaces described above due to their highly multivalent nature induced by the incorporation of two separate homodimeric regions (IGF-1R and IgG1-Fc). To distinguish between the actual high affinity binding hIGF-1R-Fc to M13-C06 and the low affinity binding of mIGF-1R-Fc to M13-C06, the receptor-Fc fusions were captured on the M13-C06 sensorchip surface followed by an additional soluble M13-C06 Fab binding event. […] After, completion of the receptor-Fc loading step, flow rates were elevated to 5 μl/min. 10 nM, […], and 1 nM M13-C06 Fab concentrations were injected (50 μL) subsequent to the loading of each receptor-Fc construct. At the end of each sensorgram, the flow rate was elevated to 30 μl/min and the chip surface was regenerated by 2×10 μL injections of 0.1 M glycine, pH 2.
# IGF-1R-Fc = assay: Surface plasmon resonance analysis of the IGF-1R-Fc mutant library (46 mutants); assay type: binding, human; settings: for C06 binding: M13-C06 Fab; for C06 binding / G11 binding / C03 binding / P1E2 binding / αIR3 binding: KD relative to WT hIGF-1R-Fc; for G11 binding: M14-G11 Fab; for C03 binding: M14-C03 Fab; for P1E2 binding: P1E2 antibody; for αIR3 binding: αIR3 antibody
# Procedure: Surface plasmon resonance (SPR) experiments were performed on a Biacore 3000 instrument set to 25° C. Both mIGF-1R-Fc and hIGF-1R-Fc bind with high apparent affinity to research grade CM5 sensorchip surfaces containing immobilized M13-C06, M14-C03, and M14-G11. The antibody sensorchip surfaces were prepared by injecting each antibody (diluted 100 μg/mL in 10 mM Acetate, pH 4.0) over EDC/NHS-activated sensorchip surfaces according to the standard protocol of the manufacturer. The ability of mIGF-1R-Fc to bind the antibody surfaces was the result of high apparent avidity of the protein. Both hIGF-1R-Fc and mIGF-1R-Fc proteins oligomerize due to the incorporation of two separate homodimeric regions (IGF-1R and IgG1-Fc). To distinguish between actual high affinity antibody binding to hIGF-1R-Fc and low affinity antibody binding to mIGF-1R-Fc, the receptor-Fc fusions were captured on the M13-C06 and M14-G11 sensorchip surfaces followed by an additional injection of antibody (αIR3 and P1E2) or antibody Fab (M13-C06, M14-C03, and M14-G11). […] After, completion of the receptor-Fc loading step, flow rates were elevated to 5 μl/min. Solutions containing M13-C06 Fab or αIR3 antibody at 10 nM, 3 nM, or 1 nM or M14-C03 Fab, M14-G11 Fab, or P1E2 antibody at 30 nM, 10 nM, or 3 nM were injected (50 μL) subsequent to the loading of each receptor-Fc construct. Dissociation was measured for 7 minutes after the antibody injections were complete. Finally, the flow rate was elevated to 30 μL/min and the chip surfaces were regenerated by 2×10 μL injections of 0.1 M glycine, pH 2.
# M13-C06, M14-C03, M14-G11, P1E2 and αIR3 were assayed for their ability to interact with each of the mutant IGF-1R-Fc fusion constructs using surface plasmon resonance (Biacore). To remove the uncertain concentrations of the IGF-1R-Fc fusion constructs as a variable in the assay, each mutant construct was captured on a research grade CM5 chip containing ˜10,000 RU immobilized […], M14-C03, and M14-G11 antibody. To enhance our ability to visualize attenuations in antibody binding to the captured mutant IGF-1R constructs, we utilized enzymatically derived M13-C06, M14-C03, and M14-G11 antigen binding fragments (Fabs).
Substance,Biacore Relative RUmax (IGF-1R),C06 binding (IGF-1R-Fc),G11 binding (IGF-1R-Fc),C03 binding (IGF-1R-Fc),effect of mutation on M13-C06 and M14-C03 Fab binding (IGF-1R-Fc),P1E2 binding (IGF-1R-Fc),αIR3 binding (IGF-1R-Fc)
SD001: hIGF-1R-Fc mutant Y28A,0.6,NE (No effect (NE): measured KD within 2.5-fold of WT hIGF-1R-Fc),NE (No effect (NE): measured KD within 2.5-fold of WT hIGF-1R-Fc),,,,
SD002: hIGF-1R-Fc mutant M156A,1.2,NE (No effect (NE): measured KD within 2.5-fold of WT hIGF-1R-Fc),NE (No effect (NE): measured KD within 2.5-fold of WT hIGF-1R-Fc),,,,
SD003: hIGF-1R-Fc mutant T188F,1.0,NE (No effect (NE): measured KD within 2.5-fold of WT hIGF-1R-Fc),NE (No effect (NE): measured KD within 2.5-fold of WT hIGF-1R-Fc),,,,
SD004: hIGF-1R-Fc mutant S210H_A211Q,0.8,NE (No effect (NE): measured KD within 2.5-fold of WT hIGF-1R-Fc),NE (No effect (NE): measured KD within 2.5-fold of WT hIGF-1R-Fc),NE (No effect (NE): measured KD within 2.5-fold of WT hIGF-1R-Fc),,,
SD005: hIGF-1R-Fc mutant A217T,0.9,NE (No effect (NE): measured KD within 2.5-fold of WT hIGF-1R-Fc),NE (No effect (NE): measured KD within 2.5-fold of WT hIGF-1R-Fc),NE (No effect (NE): measured KD within 2.5-fold of WT hIGF-1R-Fc),,,
SD101: hIGF-1R-Fc mutant S427L,,NE (No effect (NE): measured KD within 2.5-fold of WT hIGF-1R-Fc),,NE (No effect (NE): measured KD within 2.5-fold of WT hIGF-1R-Fc),,,
SD102: hIGF-1R-Fc mutant E459A S460A,,S (Strong (S): binding to antibody was ablated by mutation),,S (Strong (S): binding to antibody was ablated by mutation),,,
SD103: hIGF-1R-Fc mutant D461A V462T,,S-most,,S-most,no reactivity towards the M13-C06 and M14-C03 Fabs,,
SD104: hIGF-1R-Fc mutant H464A,,S (Strong (S): binding to antibody was ablated by mutation),,S (Strong (S): binding to antibody was ablated by mutation),,,
SD105: hIGF-1R-Fc mutant T466L S467Y,,W (Weak (W): measured KD between 2.5-10-fold higher than WT),,W (Weak (W): measured KD between 2.5-10-fold higher than WT),,,
SD106: hIGF-1R-Fc mutant T468R,,NE (No effect (NE): measured KD within 2.5-fold of WT hIGF-1R-Fc),,NE (No effect (NE): measured KD within 2.5-fold of WT hIGF-1R-Fc),,,
SD107: hIGF-1R-Fc mutant T478R,,NE (No effect (NE): measured KD within 2.5-fold of WT hIGF-1R-Fc),,W (Weak (W): measured KD between 2.5-10-fold higher than WT),,,
SD108: hIGF-1R-Fc mutant H480E,,S (Strong (S): binding to antibody was ablated by mutation),,S (Strong (S): binding to antibody was ablated by mutation),,,
SD109: hIGF-1R-Fc mutant Y482A R483W,,S (Strong (S): binding to antibody was ablated by mutation),,S (Strong (S): binding to antibody was ablated by mutation),,,
SD110: hIGF-1R-Fc mutant E533H,,W (Weak (W): measured KD between 2.5-10-fold higher than WT),,S (Strong (S): binding to antibody was ablated by mutation),,,
SD111: hIGF-1R-Fc mutant I564T R565A,,W (Weak (W): measured KD between 2.5-10-fold higher than WT),,W (Weak (W): measured KD between 2.5-10-fold higher than WT),,,

Substance,Biacore Relative RUmax (IGF-1R),C06 binding (IGF-1R-Fc),G11 binding (IGF-1R-Fc),C03 binding (IGF-1R-Fc),effect of mutation on M13-C06 and M14-C03 Fab binding (IGF-1R-Fc),P1E2 binding (IGF-1R-Fc),αIR3 binding (IGF-1R-Fc)
SD112: hIGF-1R-Fc mutant K568A,,NE (No effect (NE): measured KD within 2.5-fold of WT hIGF-1R-Fc),,W (Weak (W): measured KD between 2.5-10-fold higher than WT),,,
SD113: hIGF-1R-Fc mutant E570A I571T,,S (Strong (S): binding to antibody was ablated by mutation),,S (Strong (S): binding to antibody was ablated by mutation),,,
SD201: hIGF-1R-Fc mutant D248A,,,S (Strong (S): binding to antibody was ablated by mutation),,,W (Weak (W): measured KD between 2.5-10-fold higher than WT),S (Strong (S): binding to antibody was ablated by mutation)
SD202: hIGF-1R-Fc mutant D250S,,,S (Strong (S): binding to antibody was ablated by mutation),,,NE (No effect (NE): measured KD within 2.5-fold of WT hIGF-1R-Fc),NE (No effect (NE): measured KD within 2.5-fold of WT hIGF-1R-Fc)
SD203: hIGF-1R-Fc mutant N254A,,,M (Medium (M): measured KD between 10-100-fold higher than WT),,,S (Strong (S): binding to antibody was ablated by mutation),M (Medium (M): measured KD between 10-100-fold higher than WT)
SD204: hIGF-1R-Fc mutant S257K,,,W (Weak (W): measured KD between 2.5-10-fold higher than WT),,,M (Medium (M): measured KD between 10-100-fold higher than WT),NE (No effect (NE): measured KD within 2.5-fold of WT hIGF-1R-Fc)
SD205: hIGF-1R-Fc mutant E259K S260N,,,W (Weak (W): measured KD between 2.5-10-fold higher than WT),,,NE (No effect (NE): measured KD within 2.5-fold of WT hIGF-1R-Fc),NE (No effect (NE): measured KD within 2.5-fold of WT hIGF-1R-Fc)
SD206: hIGF-1R-Fc mutant S263R,,,W (Weak (W): measured KD between 2.5-10-fold higher than WT),,,NE (No effect (NE): measured KD within 2.5-fold of WT hIGF-1R-Fc),W (Weak (W): measured KD between 2.5-10-fold higher than WT)
SD207: hIGF-1R-Fc mutant G265Y,,,W (Weak (W): measured KD between 2.5-10-fold higher than WT),,,S (Strong (S): binding to antibody was ablated by mutation),S (Strong (S): binding to antibody was ablated by mutation)
SD208: hIGF-1R-Fc mutant V301Y,,,NE (No effect (NE): measured KD within 2.5-fold of WT hIGF-1R-Fc),,,NE (No effect (NE): measured KD within 2.5-fold of WT hIGF-1R-Fc),W (Weak (W): measured KD between 2.5-10-fold higher than WT)
SD209: hIGF-1R-Fc mutant K306E,,,NE (No effect (NE): measured KD within 2.5-fold of WT hIGF-1R-Fc),,,NE (No effect (NE): measured KD within 2.5-fold of WT hIGF-1R-Fc),NE (No effect (NE): measured KD within 2.5-fold of WT hIGF-1R-Fc)
SD210: hIGF-1R-Fc mutant T308E,,,NE (No effect (NE): measured KD within 2.5-fold of WT hIGF-1R-Fc),,,NE (No effect (NE): measured KD within 2.5-fold of WT hIGF-1R-Fc),W (Weak (W): measured KD between 2.5-10-fold higher than WT)
SD211: hIGF-1R-Fc mutant K327N,,,NE (No effect (NE): measured KD within 2.5-fold of WT hIGF-1R-Fc),,,NE (No effect (NE): measured KD within 2.5-fold of WT hIGF-1R-Fc),W (Weak (W): measured KD between 2.5-10-fold higher than WT)
SD212: hIGF-1R-Fc mutant L379R,,,NE (No effect (NE): measured KD within 2.5-fold of WT hIGF-1R-Fc),,,NE (No effect (NE): measured KD within 2.5-fold of WT hIGF-1R-Fc),W (Weak (W): measured KD between 2.5-10-fold higher than WT)
SDWT: wild-type hIGF-1R-Fc,1.0,,,,,,
